The numbers were not newly measured in patent US20030203043A1 (priority 2002, published 2003), which cites them from elsewhere.

Each structure is given as a SMILES string. Like-named read-outs stand apart in the source and are kept apart here.

For series [1] the following is noted: supplementation.
For series [2] the following is noted: female rats.
For series [3], the target named is T1, aromatase (Homo sapiens, UniProt P11511).
T1 sequence (P11511 1-503): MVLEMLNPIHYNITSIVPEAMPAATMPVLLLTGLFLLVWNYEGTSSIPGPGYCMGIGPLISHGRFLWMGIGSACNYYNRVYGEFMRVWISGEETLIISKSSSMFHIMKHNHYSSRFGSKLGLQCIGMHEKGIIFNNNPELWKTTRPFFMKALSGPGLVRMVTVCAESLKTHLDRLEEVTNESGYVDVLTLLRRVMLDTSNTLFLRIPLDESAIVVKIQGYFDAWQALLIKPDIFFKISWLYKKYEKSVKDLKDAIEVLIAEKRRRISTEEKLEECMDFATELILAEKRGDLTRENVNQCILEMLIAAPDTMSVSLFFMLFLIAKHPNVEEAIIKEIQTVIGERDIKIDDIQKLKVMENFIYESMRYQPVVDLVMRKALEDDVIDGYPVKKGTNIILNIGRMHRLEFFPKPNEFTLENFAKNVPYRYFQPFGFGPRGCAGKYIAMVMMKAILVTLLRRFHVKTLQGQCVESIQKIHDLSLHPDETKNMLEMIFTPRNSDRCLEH
Conditions: relative to chrysin, AG, ANG.

Assay in series [4]: not given
This is another data set of the same source.

For series [5] the following is noted: hypogonadal men; for waking erection: Asian group; for sexual interest and activity, spontaneous erection: Caucasian group.
The conditions of series [6]: prostate and seminal vesicle weights.
The conditions of series [7]: levator ani muscles.
The conditions of series [8]: 300 mg/wk, six weeks; TE shoulders; ND shoulders and chest.
The conditions of series [9]: pharmacological doses.
The conditions of series [10]: in vivo.
The conditions of series [11]: in vivo. The source holds these as a separate data set.
The conditions of series [12]: compared with placebo.

Take `C[C@]12CC[C@H]3[C@@H](CCC4=C[C@@H](O)CC[C@@]43C)[C@@H]1CC[C@@H]2O` [4-androstenediol]: the “urine testosterone concentration relative to 4-androstenedione” value (supplementation) is recorded as 10 fold.

On to `C[C@]12CCC(=O)C=C1CC[C@@H]1[C@@H]2CC[C@]2(C)C(=O)CC[C@@H]12` [4-androstenedione], for which the serum testosterone result in [1] is “elevations in serum testosterone”.

Take `C[C@]12CC[C@H]3[C@@H](CC=C4C[C@@H](O)CC[C@@]43C)[C@@H]1CC[C@@H]2O` [5-androstenediol]: in [2], the “lipid deposition or heat production” value is “did not have a significant effect” and the “proportion of protein in the body composition” value is recorded as “increased the proportion of protein”.

As to `C[C@]12CC[C@H]3[C@@H](CCC4=CC(=O)CC[C@@H]43)[C@@H]1CCC2=O` [19-nor-androstenedione], for the setting “in vivo”, the excretion products result was “excreted mainly as nor-androsterone and nor-etiocholanolone”.

Turning to `COc1ccc(-c2coc3cc(O)cc(O)c3c2=O)cc1` [Biochanin A, 5,7-dihydroxy-4′-methoxyisoflavone], the aromatase inhibition result in series [3] is “inhibited aromatase, but to a lesser degree”.

Regarding `C[C@]12CC[C@H](O)CC1=CC[C@@H]1[C@@H]2CC[C@]2(C)C(=O)CC[C@@H]12` [DHEA, dehydro-epiandrosterone], in series [4] (50 mg dose), the plasma testosterone result is “levels similar to those observed in young women”. Further, in series [4] (50 mg or 200 mg DHEA), the “delta 5-androstenediol plasma level” value is on record as “small increase”; the “increase of plasma delta 4-androstenedione” value is “significant and dose dependent”; the “plasma estrogens, particularly estradiol” value was “significant and dose dependent increase”. Moreover, the plasma testosterone entry in series [4] (200 mg dose) was “slightly below the levels observed in normal men”. The “increase of plasma dihydrotestosterone levels” value in series [4] (both doses) is reported as “small”.

Regarding `C[C@@H]1CC2=CC(=O)CC[C@@H]2[C@H]2CC[C@]3(C)[C@@H](O)CC[C@H]3[C@@H]21` [MENT, 7α-methyl-19-nor-testosterone], in [5], the waking erection result was “increased waking erection”; the “sexual interest and activity, spontaneous erection” value was “significant increases”. The “androgenic potency relative to testosterone” value in [6] was “four- to five-times”. Moreover, the “anabolic potency relative to testosterone” value in series [7] is on record as “ten-times”.

With `CCCCCCC(=O)O[C@H]1CC[C@H]2[C@@H]3CCC4=CC(=O)CC[C@]4(C)[C@H]3CC[C@]12C` [TE, testosterone enanthate], the body circumferences entry in [8] is on record as “significant increases”. Besides, in series [5], the waking erection result was “increased waking erection”; the “sexual interest and activity, spontaneous erection” value is listed as “significant increases”.

Take `C[C@]12CC[C@H]3[C@@H](CCC4=CC(=O)CC[C@@]43C)[C@@H]1CC[C@@H]2O` [Testosterone]: in [2], the “lipid deposition or heat production” value was “did not have a significant effect” and the “proportion of protein in the body composition” value is reported as “increased the proportion of protein”.

Take `CCCCCCCCCC(=O)O[C@H]1CC[C@H]2[C@@H]3CCC4=CC(=O)CC[C@@H]4[C@H]3CC[C@]12C` [nandrolone decanoate]: in series [8], the body circumferences result is recorded as “significant increases”. In addition, the “total weight, lean body mass, body cell mass, muscle size, and strength” value in [9] was “significant gains”.

With `C[C@]12CC[C@H]3[C@@H](CCC4=CC(=O)CC[C@@H]43)[C@@H]1CC[C@@H]2O` [nandrolone, 19-nor-testosterone], in series [10], the “decrease in HDL-cholesterol” value is recorded as 25-27%. Besides, the effect on sperm entry in series [11] was “azoospermia”. The lean body mass entry in series [12] is given as “increased significantly”. Besides, in series [2], the energy expenditure result is listed as “increased energy expenditure”.
